From ChEMBL document CHEMBL1909557, “Oligopeptide cyclophilin inhibitors: a reassessment” (Eur J Med Chem, 2011)
Active and inactive are the calls of the source. Peptide text beside a SMILES is read from it.

Legend:
[1] = molecular target: Peptidyl-prolyl cis-trans isomerase A (Homo sapiens) (UniProt P62937); test: Binding affinity to human recombinant cyclophilin-A up to 25 uM by isothermal titration calorimetry assay
[2] = molecular target: Peptidyl-prolyl cis-trans isomerase A (Homo sapiens) (UniProt P62937); test: Inhibition of PPIase activity of human recombinant cyclophilin-A using succinyl-Ala-Ala-Pro-Phe-4-nitroanilide as substrate at 100 uM pretreated for 3 hrs before substrate addition by spectrophotometry
[3] = molecular target: Peptidyl-prolyl cis-trans isomerase A (Homo sapiens) (UniProt P62937); test: Inhibition of PPIase activity of human recombinant cyclophilin-A using succinyl-Ala-Ala-Pro-Phe-4-nitroanilide as substrate at 100 uM by protease coupled assay

Sequence of Peptidyl-prolyl cis-trans isomerase A (Homo sapiens) (P62937 whole entry, looked up): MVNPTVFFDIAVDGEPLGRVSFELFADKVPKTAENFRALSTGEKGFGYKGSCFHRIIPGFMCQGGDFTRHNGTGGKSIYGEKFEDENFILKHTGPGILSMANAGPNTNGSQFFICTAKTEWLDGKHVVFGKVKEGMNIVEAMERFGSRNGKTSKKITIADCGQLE

N[C@@H](Cc1c[nH]c2ccccc12)C(=O)NCC(=O)N1CCC[C@H]1C(=O)O (H-Trp-Gly-Pro-OH)
inactive: Activity [1] | inhibition [2] | inhibition [3]
